Key:
α4β1 integrin = target: T1, α4β1 integrin (Homo sapiens, UniProt P05556+P13612); experiment: α4β1 Cell Capture Assay; assay type: cell-based; conditions: capture of α4β1 expressing Jurkat cells on VCAM-1 extracellular domain-coated plate
T1 construct: monitoring the capture of α4β1 expressing cells; endogenous in cells; host or cells: Jurkat
Procedure, shortened: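 Jurkat cells in DMEM with 0.5% FBS and 0.5 mM MnCl2 preincubated 1 h at 37° C with compound, then allowed 30 min at 37° C to bind plates coated with recombinant VCAM-1 extracellular domain (0.5 μg/ml). After glutaraldehyde fixation and Hoechst staining, bound cells counted by imaging; EC50 from concentration–response.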

α4β7 integrin = target: T2, α4β7 integrin (Homo sapiens, UniProt P13612+P26010); experiment: α4β7 Integrin Cell Capture Assay; assay type: cell-based; conditions: capture of α4β7 integrin expressing RPM18866 cells on MadCAM-1 extracellular domain-coated plate
T2 construct: monitoring the capture of α4β7 integrin expressing cells; endogenous in cells; host or cells: RPMI8866
T2 sequence (P13612 34-1032): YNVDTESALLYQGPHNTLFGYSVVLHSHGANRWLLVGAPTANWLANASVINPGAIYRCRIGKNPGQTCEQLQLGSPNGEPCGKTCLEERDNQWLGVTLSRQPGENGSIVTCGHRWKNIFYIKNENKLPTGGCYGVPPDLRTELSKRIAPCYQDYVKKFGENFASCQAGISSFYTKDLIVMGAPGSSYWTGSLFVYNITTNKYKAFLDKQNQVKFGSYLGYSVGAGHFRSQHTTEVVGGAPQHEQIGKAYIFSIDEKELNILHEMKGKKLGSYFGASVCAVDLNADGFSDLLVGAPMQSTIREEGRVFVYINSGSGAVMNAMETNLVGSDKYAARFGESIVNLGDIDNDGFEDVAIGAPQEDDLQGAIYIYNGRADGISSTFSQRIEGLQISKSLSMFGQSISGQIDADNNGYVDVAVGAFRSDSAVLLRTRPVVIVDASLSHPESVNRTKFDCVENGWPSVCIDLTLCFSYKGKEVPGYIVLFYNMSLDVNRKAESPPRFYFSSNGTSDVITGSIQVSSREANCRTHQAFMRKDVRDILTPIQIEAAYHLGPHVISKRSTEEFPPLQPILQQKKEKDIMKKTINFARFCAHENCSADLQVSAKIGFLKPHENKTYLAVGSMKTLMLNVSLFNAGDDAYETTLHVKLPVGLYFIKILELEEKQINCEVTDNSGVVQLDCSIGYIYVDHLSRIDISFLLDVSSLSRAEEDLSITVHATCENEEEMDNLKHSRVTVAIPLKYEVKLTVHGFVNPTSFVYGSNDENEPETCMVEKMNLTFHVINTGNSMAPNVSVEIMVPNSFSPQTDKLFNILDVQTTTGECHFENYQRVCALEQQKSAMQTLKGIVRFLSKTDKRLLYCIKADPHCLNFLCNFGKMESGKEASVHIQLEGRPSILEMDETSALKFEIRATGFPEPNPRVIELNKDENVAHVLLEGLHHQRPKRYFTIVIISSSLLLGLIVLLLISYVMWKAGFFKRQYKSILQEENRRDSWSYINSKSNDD
T2 sequence (P26010 20-798): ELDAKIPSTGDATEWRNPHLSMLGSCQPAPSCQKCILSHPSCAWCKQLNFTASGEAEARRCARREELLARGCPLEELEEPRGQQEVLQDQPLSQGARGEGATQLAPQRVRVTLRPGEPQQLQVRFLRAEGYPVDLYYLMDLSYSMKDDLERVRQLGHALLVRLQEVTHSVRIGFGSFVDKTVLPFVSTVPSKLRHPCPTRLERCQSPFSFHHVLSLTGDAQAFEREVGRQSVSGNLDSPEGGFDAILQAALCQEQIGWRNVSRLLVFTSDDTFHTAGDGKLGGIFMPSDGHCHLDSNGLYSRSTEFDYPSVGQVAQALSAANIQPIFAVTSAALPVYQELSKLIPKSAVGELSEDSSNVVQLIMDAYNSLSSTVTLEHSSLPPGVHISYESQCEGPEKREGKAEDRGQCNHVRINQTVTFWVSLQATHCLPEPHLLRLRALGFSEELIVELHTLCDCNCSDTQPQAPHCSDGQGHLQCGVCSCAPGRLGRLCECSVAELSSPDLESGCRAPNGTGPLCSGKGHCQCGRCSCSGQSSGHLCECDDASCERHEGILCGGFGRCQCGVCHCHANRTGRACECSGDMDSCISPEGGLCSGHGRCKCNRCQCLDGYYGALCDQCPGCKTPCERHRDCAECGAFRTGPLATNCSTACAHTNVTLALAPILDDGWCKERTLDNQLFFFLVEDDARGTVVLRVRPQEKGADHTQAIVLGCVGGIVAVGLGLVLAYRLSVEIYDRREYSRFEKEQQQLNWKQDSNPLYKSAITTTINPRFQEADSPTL
Procedure, shortened: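 RPM18866 cells were preincubated with compound for 1 h at 37 °C in DMEM with 0.5% FBS and 0.5 mM MnCl2. They were then allowed to adhere for 30 min at 37 °C to BSA-blocked plates coated with MAdCAM-1 extracellular domain (1.0 µg/mL). After glutaraldehyde/Hoechst fixation and washing, bound cells were counted by imaging, and EC50 was fitted from counts versus concentration.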

T1 sequence (P05556 21-798, one chain of several): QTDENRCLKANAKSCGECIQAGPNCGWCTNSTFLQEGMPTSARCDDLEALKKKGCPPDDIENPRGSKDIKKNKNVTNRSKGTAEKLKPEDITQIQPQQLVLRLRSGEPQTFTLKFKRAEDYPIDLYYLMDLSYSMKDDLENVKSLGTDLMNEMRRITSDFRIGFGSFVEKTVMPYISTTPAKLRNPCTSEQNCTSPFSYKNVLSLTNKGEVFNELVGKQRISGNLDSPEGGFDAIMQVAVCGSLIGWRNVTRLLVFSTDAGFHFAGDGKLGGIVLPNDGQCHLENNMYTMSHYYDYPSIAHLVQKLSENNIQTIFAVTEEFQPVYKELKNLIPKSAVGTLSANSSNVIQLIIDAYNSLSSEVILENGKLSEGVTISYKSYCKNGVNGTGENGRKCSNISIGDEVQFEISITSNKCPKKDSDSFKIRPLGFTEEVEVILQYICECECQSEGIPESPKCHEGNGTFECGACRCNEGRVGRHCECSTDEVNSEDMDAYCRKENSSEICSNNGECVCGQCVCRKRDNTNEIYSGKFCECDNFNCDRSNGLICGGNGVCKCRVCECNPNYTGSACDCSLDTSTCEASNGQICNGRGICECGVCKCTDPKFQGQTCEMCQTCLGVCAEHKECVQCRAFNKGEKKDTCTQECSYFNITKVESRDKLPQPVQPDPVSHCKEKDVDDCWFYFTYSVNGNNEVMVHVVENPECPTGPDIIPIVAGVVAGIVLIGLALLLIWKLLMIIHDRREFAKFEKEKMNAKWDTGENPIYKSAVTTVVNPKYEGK

Structure (SMILES)	EC50 (α4β1 integrin; Table 1) [nM]	EC50 (α4β7 integrin; Table 1) [nM]	EC50 (α4β1 integrin; Table 2) [nM]	EC50 (α4β7 integrin; Table 2) [nM]
Cc1cc(N2CCOC[C@@H]2C(F)(F)F)cc(F)c1C(=O)N[C@@H](Cc1ccc(-n2c(=O)c3c(n(C)c2=O)COC3)cc1)C(=O)O [Example 66, (S)-2-(2-fluoro-6-methyl-4-((R)-3-(trifluoromethyl)morpholino)benzamido)-3-(4-(1-methyl-2,4-dioxo-1,2,5,7-tetrahydrofuro[3,4-d]pyrimidin-3(4H)-yl)phenyl)propanoic acid]	4.8	0.1		
Cc1cc(C[C@H](NC(=O)c2c(C)cc(N3CCOC[C@@H]3C(F)(F)F)cc2F)C(=O)O)ccc1-c1c(C(F)(F)F)cc(C)n(C)c1=O [Example 5, (S)-3-(4-(1,6-dimethyl-2-oxo-4-(trifluoromethyl)-1,2-dihydropyridin-3-yl)-3-methylphenyl)-2-(2-fluoro-6-methyl-4-((R)-3-(trifluoromethyl)morpholino)benzamido)propanoic acid]	16.6	0.2		
COc1cc(C[C@H](NC(=O)c2c(F)cc(N3CCOC[C@@H]3C(F)(F)F)cc2F)C(=O)O)ccc1-n1c(=O)c2ccncc2n(C)c1=O [Example 53]			18.6	0.2
Cc1cc(N2CCOC[C@@H]2C(F)(F)F)cc(F)c1C(=O)N[C@@H](Cc1ccc(-n2c(=O)c3c(n(C)c2=O)CCOC3)nc1)C(=O)O [Example 68, (S)-2-(2-fluoro-6-methyl-4-((R)-3-(trifluoromethyl)morpholino)benzamido)-3-(6-(1-methyl-2,4-dioxo-1,5,7,8-tetrahydro-2H-pyrano[4,3-d]pyrimidin-3(4H)-yl)pyridin-3-yl)propanoic acid]	14.9	0.3		
COc1cc(C[C@H](NC(=O)c2c(C)cc(N3CCOC[C@@H]3C(F)(F)F)cc2F)C(=O)O)ccc1-n1c(=O)c2ccncc2n(C)c1=O [Example 27, (S)-2-(2-fluoro-6-methyl-4-((R)-3-(trifluoromethyl)morpholino)benzamido)-3-(3-methoxy-4-(1-methyl-2,4-dioxo-1,4-dihydropyrido[3,4-d]pyrimidin-3(2H)-yl)phenyl)propanoic acid]	8.6	0.1		
COc1cnc2c(=O)n(-c3ccc(C[C@H](NC(=O)c4c(C)cc(N5CCOC[C@@H]5C(F)(F)F)cc4F)C(=O)O)cn3)c(=O)n(C)c2c1 [Example 78]			3.4	0.16
Cc1cc(N2CCOC[C@@H]2C(F)(F)F)cc(F)c1C(=O)N[C@@H](Cc1ccc(-c2nc(C)c(C)n(C)c2=O)c(Cl)c1)C(=O)O [Example 7, (S)-3-(3-chloro-4-(4,5,6-trimethyl-3-oxo-3,4-dihydropyrazin-2-yl)phenyl)-2-(2-fluoro-6-methyl-4-((R)-3-(trifluoromethyl)morpholino)benzamido)propanoic acid]	15.3	0.5		
Cc1cc(N2CCOC[C@H]2CC(F)F)cc(F)c1C(=O)N[C@@H](Cc1ccc(-n2c(=O)c3ccncc3n(C)c2=O)nc1)C(=O)O [Example 85]			17.9	3.9
Cc1cc(N2CCOC[C@@H]2C(F)(F)F)cc(F)c1C(=O)N[C@@H](Cc1ccc(-n2c(=O)c3c(n(C)c2=O)CCOC3)cc1)C(=O)O [Example 59, (S)-2-(2-fluoro-6-methyl-4-((R)-3-(trifluoromethyl)morpholino)benzamido)-3-(4-(1-methyl-2,4-dioxo-1,5,7,8-tetrahydro-2H-pyrano[4,3-d]pyrimidin-3(4H)-yl)phenyl)propanoic acid]	2.9	0.1		
Cc1cc(N2CCOC[C@@H]2C(F)(F)F)cc(F)c1C(=O)N[C@@H](Cc1ccc(-n2c(=O)c3ccc(C#N)cc3n(C)c2=O)nc1)C(=O)O [Example 76]			4.9	0.16
Cc1cc(C[C@H](NC(=O)c2c(F)cc(N3CCOC[C@@H]3C(F)(F)F)cc2F)C(=O)O)ccc1-c1c(C)n(C)c(=O)n(C)c1=O [Example 39]			12.8	0.4
CC[C@@H](Nc1cc(F)c(C(=O)N[C@@H](Cc2ccc(-c3c(C)c4cc(F)ccc4n(C)c3=O)nc2)C(=O)O)c(F)c1)C(F)(F)F [Example 44]			37.6	2.9
CC[C@@H](N(c1cc(F)c(C(=O)N[C@@H](Cc2ccc(-n3c(=O)c4ccncc4n(C)c3=O)nc2)C(=O)O)c(F)c1)C1CC1)C(F)(F)F [Example 19, (S)-2-(4-(cyclopropyl((R)-1,1,1-trifluorobutan-2-yl)amino)-2,6-difluorobenzamido)-3-(6-(1-methyl-2,4-dioxo-1,4-dihydropyrido[3,4-d]pyrimidin-3(2H)-yl)pyridin-3-yl)propanoic acid]	127	2		
